Assay results as given in ChEMBL document CHEMBL5108045, “Identification and Utilization of a Chemical Probe to Interrogate the Roles of PIKfyve in the Lifecycle of β-Coronaviruses” (J Med Chem, 2022).
pIC50: −log10 of the molar value. The source made the active and inactive calls. The calls are words filed in the database; no cut-off is given here.

Key:
[1] = target: T1, 1-phosphatidylinositol 3-phosphate 5-kinase (Homo sapiens, UniProt Q9Y2I7); assay: Inhibition of human GST tagged PIKFYVE (1493 to end residues) expressed in baculovirus-infected Sf9 cells using PI(3)P:PS as substrate incubated for 60 mins in presence of ATP by ADP-Glo assay
[2] = target: T1, 1-phosphatidylinositol 3-phosphate 5-kinase; assay: Inhibition of PIKFYVE in HEK293 cells by NanoBRET assay; format: cell-based
[3] = target: Phosphatidylinositol 5-phosphate 4-kinase type-2 gamma (Homo sapiens) (UniProt Q8TBX8); assay: Inhibition of human wild type full length PIP5K2C (M1 to A421 residues) expressed in mammalian expression system assessed as remaining activity at 1 uM by Kinomescan assay relative to control
[4] = target: cAMP-dependent protein kinase catalytic subunit PRKX (Homo sapiens) (UniProt P51817); assay: Inhibition of human wild type partial length PRKX (M1 to F358 residues) expressed in bacterial expression system assessed as remaining activity at 1 uM by Kinomescan assay relative to control
[5] = target: Dual serine/threonine and tyrosine protein kinase (Homo sapiens) (UniProt Q6XUX3); assay: Inhibition of human wild type full length RIPK5 (M1 to T929 residues) expressed in mammalian expression system assessed as remaining activity at 1 uM by Kinomescan assay relative to control
[6] = target: Serine/threonine-protein kinase TAO3 (Homo sapiens) (UniProt Q9H2K8); assay: Inhibition of human wild type partial length TAOK3 (M1 to T316 residues) expressed in mammalian expression system assessed as remaining activity at 1 uM by Kinomescan assay relative to control
[7] = target: Citron Rho-interacting kinase (Homo sapiens) (UniProt O14578); assay: Inhibition of wild-type human partial length CIT (M68 to E432 residues) expressed in bacterial expression system assessed as residual binding level at 1 uM by Kinomescan method relative to control
[8] = target: Myosin light chain kinase family member 4 (Homo sapiens) (UniProt Q86YV6); assay: Inhibition of human wild type […] length MYLK4 (V79 to S380 residues) expressed in bacterial expression system assessed as remaining activity at 1 uM by Kinomescan assay relative to control
[9] = target: Serine/threonine-protein kinase PAK 5 (Homo sapiens) (UniProt Q9P286); assay: Inhibition of human wild type PAK7 expressed in Escherichia coli assessed as remaining activity using RRRLSFAEPG peptide substrate at 1 uM by MRC screening assay relative to control
[10] = target: Phosphatidylinositol 4-phosphate 5-kinase type-1 gamma (Homo sapiens) (UniProt O60331); assay: Inhibition of human wild type full length PIP5K1C (M1 to T668 residues) expressed in mammalian expression system assessed as remaining activity at 1 uM by Kinomescan assay relative to control
[11] = target: Dual specificity mitogen-activated protein kinase kinase 4 (Homo sapiens) (UniProt P45985); assay: Inhibition of human wild type partial length MEK4 (S84 to D399 residues) expressed in mammalian expression system assessed as remaining activity at 1 uM by Kinomescan assay relative to control
[12] = target: Mitogen-activated protein kinase kinase kinase kinase 2 (Homo sapiens) (UniProt Q12851); assay: Inhibition of human wild type partial length MAP4K2 (M1 to G318 residues) expressed in mammalian expression system assessed as remaining activity at 1 uM by Kinomescan assay relative to control
[13] = target: Mitogen-activated protein kinase kinase kinase 3 (Homo sapiens) (UniProt Q99759); assay: Inhibition of human wild type partial length MAP3K3 (E320 to Y626 residues) expressed in mammalian expression system assessed as remaining activity at 1 uM by Kinomescan assay relative to control
[14] = target: Serine/threonine-protein kinase TAO2 (Homo sapiens) (UniProt Q9UL54); assay: Inhibition of human wild type partial length TAOK2 (M1 to A320 residues) expressed in mammalian expression system assessed as remaining activity at 1 uM by Kinomescan assay relative to control
[15] = target: Serine/threonine-protein kinase PAK 6 (Homo sapiens) (UniProt Q9NQU5); assay: Inhibition of human wild type PAK6 assessed as remaining activity at 1 uM by MRC screening assay relative to control
[16] = target: Serine/threonine-protein kinase PAK 4 (Homo sapiens) (UniProt O96013); assay: Inhibition of human wild type PAK4 assessed as remaining activity at 1 uM by MRC screening assay relative to control
[17] = target: Serine/threonine-protein kinase TAO1 (Homo sapiens) (UniProt Q7L7X3); assay: Inhibition of human wild type TAOK1 assessed as remaining activity at 1 uM by MRC screening assay relative to control
[18] = target: Tyrosine-protein kinase JAK2 (Homo sapiens) (UniProt O60674); assay: Inhibition of human wild type JAK2 (JH1) domain assessed as remaining activity at 1 uM by MRC screening assay relative to control
[19] = target: Mitogen-activated protein kinase kinase kinase 2 (Homo sapiens) (UniProt Q9Y2U5); assay: Inhibition of wild-type human partial length MAP3K2 (S315 to H619 residues) expressed in mammalian expression system assessed as residual binding level at 1 uM by Kinomescan method relative to control
[20] = target: Mitogen-activated protein kinase kinase kinase 19 (Homo sapiens) (UniProt Q56UN5); assay: Inhibition of wild-type human partial length YSK4 (T1019 to H1328 residues) expressed in mammalian expression system assessed as residual binding level at 1 uM by Kinomescan method relative to control
[21] = target: Mitogen-activated protein kinase kinase kinase kinase 5 (Homo sapiens) (UniProt Q9Y4K4); assay: Inhibition of human wild type MAP4K5 assessed as remaining activity at 1 uM by MRC screening assay relative to control
Murine hepatitis virus = assay: microbe, parasite or virus in culture; settings: Murine coronavirus, Astrocytoma delayed brain tumor (DBT) cell; for IC50: read-out: pIC50 (converted)
Description: Antiviral activity against MHV-nLuc infected in DBT cells assessed as effect on cell viability by LDH assay

SARS-CoV-2 = assay: microbe, parasite or virus in culture; settings: Severe acute respiratory syndrome coronavirus 2, A549-ACE2
Description: Antiviral activity against SARS-CoV-2 infected in human A549-ACE2 cells assessed as effect on cell viability pretreated with compound for 1 hr followed by viral infection measured after 2 hrs by Nano-Glo reagent based LDH assay

[22] = target: Microtubule-associated serine/threonine-protein kinase 1 (Homo sapiens) (UniProt Q9Y2H9); assay: Inhibition of wild-type human partial length MAST1 (S346 to V730 residues) expressed in mammalian expression system assessed as residual activity at 1 uM by Kinomescan method relative to control
Calu-3 [23] = assay: Inhibition of lentivirus pseudotyped with SARS-CoV-2 spike glycoprotein uptake in human Calu-3 cells at 1 uM preincubated for 1 hr prior to viral infection for 12 hrs by fluorescence based analysis; format: functional, cell-based
[24] = (§1) Inhibition of His-6 tagged SARS-CoV-2 spike protein uptake in human Calu-3 cells at 1 uM incubated for 1 hr by fluorescence based analysis relative control; format: functional
[25] = (§2) Inhibition of His-6 tagged SARS-CoV-2 spike protein uptake in human Caco-2 cells at 1 uM incubated for 1 hr by fluorescence based analysis relative control; format: functional
[26] = Microsomal stability in CD-1 mouse liver microsomal assessed as parent compound remaining preincubated for 5 mins followed by NADPH addition measured after 30 mins by LC-TOFMS; format: ADME, subcellular; settings: liver microsomes, time 35 min, read-out: Stability
SH-SY5Y = assay: Induction of lysosome dysfunction in human SH-SY5Y cells at 5 uM incubated for 24 hrs by lyso-tracker red DND-99 based confocal microscopic method; format: functional, cell-based
Calu-3 [27] = assay: as §1; format: functional
Caco-2 = assay: as §2; format: functional

T1 sequence (Q9Y2I7 whole entry): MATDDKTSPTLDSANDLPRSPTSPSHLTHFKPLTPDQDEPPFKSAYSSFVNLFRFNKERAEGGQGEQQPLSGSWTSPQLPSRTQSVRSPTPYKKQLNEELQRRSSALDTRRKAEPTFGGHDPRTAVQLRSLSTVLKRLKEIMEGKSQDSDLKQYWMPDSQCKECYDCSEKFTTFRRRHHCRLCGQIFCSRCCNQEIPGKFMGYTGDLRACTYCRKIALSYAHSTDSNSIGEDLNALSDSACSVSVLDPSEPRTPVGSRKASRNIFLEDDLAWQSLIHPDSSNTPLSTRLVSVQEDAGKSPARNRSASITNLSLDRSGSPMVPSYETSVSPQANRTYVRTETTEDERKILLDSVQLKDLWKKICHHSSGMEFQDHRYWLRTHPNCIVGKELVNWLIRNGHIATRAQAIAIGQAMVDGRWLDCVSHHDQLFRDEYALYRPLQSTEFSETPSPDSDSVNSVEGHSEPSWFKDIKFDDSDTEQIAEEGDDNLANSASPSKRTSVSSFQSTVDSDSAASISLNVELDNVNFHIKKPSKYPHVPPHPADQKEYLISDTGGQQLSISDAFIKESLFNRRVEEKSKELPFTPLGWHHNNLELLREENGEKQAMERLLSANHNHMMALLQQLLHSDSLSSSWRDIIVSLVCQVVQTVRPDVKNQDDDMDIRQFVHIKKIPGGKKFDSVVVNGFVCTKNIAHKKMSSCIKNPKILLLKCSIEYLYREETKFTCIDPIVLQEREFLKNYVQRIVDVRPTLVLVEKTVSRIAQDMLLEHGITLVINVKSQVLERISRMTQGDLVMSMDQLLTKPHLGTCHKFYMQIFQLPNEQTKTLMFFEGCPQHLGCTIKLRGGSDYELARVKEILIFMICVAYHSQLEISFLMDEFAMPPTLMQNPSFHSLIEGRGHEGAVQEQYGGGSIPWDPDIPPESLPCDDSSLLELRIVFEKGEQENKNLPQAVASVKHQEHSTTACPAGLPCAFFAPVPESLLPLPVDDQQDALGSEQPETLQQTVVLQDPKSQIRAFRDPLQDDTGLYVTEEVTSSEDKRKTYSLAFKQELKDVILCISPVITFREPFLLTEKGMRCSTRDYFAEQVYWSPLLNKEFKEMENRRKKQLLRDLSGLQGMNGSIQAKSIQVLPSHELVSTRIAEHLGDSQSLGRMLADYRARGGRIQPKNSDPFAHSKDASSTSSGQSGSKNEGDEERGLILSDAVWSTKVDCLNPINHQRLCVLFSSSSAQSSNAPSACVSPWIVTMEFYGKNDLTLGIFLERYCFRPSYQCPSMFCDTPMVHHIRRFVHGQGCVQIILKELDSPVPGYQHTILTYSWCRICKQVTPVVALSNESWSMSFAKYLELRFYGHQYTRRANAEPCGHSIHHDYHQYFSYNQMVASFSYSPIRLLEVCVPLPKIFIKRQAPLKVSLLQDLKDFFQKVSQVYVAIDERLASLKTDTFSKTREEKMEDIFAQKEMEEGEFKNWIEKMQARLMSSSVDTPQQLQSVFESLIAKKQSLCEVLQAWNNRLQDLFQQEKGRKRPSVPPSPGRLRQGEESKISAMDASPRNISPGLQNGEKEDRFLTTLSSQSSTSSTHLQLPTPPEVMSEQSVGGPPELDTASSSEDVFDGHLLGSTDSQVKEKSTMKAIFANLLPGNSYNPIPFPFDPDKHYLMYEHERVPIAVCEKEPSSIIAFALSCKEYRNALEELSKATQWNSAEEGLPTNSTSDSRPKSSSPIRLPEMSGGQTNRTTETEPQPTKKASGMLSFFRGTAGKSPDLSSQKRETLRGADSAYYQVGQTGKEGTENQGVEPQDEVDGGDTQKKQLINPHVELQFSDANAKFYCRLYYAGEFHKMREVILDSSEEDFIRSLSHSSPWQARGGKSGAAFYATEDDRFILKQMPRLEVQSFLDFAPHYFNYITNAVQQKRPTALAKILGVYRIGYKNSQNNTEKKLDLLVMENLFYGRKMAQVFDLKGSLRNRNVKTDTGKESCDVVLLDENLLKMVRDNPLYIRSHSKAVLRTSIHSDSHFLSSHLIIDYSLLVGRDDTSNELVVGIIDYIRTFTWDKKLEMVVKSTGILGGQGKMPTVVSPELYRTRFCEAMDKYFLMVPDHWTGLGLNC
Chain of Mitogen-activated protein kinase kinase kinase 2 (Homo sapiens) (Q9Y2U5 whole entry, the tested form may be a part): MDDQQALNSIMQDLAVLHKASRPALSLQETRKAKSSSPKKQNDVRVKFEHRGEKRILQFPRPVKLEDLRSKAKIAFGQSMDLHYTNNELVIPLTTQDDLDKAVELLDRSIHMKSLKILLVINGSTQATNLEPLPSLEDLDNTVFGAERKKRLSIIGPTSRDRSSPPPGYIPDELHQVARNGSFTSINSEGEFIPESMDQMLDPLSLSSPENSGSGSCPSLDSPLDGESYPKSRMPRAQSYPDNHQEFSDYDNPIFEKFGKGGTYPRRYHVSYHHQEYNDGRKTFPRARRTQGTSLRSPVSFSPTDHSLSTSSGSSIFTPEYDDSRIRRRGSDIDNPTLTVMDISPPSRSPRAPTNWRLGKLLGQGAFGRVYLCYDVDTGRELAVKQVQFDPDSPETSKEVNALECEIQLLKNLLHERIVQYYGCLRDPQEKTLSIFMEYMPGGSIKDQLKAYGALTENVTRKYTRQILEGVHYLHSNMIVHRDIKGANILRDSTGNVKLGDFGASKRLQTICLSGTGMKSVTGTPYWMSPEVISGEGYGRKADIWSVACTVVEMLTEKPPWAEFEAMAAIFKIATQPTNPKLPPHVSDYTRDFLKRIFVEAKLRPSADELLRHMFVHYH
Chain of Microtubule-associated serine/threonine-protein kinase 1 (Homo sapiens) (Q9Y2H9 whole entry, looked up, the tested form may be a part): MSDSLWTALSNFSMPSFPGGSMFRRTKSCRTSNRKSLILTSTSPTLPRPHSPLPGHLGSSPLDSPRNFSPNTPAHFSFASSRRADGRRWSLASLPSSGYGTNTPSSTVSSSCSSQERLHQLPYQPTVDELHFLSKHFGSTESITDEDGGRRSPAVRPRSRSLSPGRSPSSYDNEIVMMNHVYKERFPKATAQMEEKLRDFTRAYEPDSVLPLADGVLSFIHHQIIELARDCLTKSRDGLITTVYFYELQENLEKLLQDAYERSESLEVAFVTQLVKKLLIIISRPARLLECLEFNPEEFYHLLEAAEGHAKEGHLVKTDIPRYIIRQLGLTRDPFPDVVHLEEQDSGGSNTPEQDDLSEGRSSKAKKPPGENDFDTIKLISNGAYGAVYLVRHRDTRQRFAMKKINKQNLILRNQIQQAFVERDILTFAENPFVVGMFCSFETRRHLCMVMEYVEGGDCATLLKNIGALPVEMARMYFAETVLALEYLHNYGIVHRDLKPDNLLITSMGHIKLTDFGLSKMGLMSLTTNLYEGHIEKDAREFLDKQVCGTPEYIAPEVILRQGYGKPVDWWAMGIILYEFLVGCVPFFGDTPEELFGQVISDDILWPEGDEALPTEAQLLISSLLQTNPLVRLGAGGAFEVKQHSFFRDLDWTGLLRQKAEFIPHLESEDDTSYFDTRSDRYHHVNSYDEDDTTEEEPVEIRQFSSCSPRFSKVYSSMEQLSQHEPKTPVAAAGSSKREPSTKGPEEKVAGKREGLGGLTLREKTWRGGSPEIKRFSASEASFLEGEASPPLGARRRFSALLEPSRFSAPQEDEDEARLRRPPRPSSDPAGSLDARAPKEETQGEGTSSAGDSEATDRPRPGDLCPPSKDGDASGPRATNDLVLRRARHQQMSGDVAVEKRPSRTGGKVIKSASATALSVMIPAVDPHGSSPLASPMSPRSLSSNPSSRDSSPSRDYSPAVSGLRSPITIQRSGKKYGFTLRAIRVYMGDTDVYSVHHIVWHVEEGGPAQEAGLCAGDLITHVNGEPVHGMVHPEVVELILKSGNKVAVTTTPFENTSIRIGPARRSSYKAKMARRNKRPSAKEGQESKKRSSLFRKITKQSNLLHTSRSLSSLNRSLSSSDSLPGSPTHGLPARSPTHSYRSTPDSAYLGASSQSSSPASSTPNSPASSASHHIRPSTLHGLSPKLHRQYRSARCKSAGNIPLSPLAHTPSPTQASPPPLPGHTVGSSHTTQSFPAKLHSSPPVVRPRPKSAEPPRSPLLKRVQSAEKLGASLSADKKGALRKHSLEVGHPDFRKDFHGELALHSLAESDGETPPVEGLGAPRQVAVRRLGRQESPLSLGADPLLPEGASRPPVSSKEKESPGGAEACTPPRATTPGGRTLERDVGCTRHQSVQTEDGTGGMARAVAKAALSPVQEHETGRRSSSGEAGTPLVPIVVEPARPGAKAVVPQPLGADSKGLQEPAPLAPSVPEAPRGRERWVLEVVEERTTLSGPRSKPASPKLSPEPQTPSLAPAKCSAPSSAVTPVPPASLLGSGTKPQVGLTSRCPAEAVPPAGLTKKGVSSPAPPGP
Chain of Dual specificity mitogen-activated protein kinase kinase 4 (Homo sapiens) (P45985 whole entry, the tested form may be a part): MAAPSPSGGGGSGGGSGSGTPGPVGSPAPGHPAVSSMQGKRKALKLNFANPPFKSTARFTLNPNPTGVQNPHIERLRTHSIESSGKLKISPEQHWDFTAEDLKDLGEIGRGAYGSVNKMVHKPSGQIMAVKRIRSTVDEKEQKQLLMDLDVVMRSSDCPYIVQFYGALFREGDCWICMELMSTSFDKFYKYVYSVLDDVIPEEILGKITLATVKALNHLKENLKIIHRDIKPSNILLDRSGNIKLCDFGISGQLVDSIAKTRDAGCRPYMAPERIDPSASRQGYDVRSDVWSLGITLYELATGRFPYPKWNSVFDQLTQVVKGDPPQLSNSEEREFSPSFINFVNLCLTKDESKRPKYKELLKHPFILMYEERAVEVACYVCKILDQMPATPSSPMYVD
Chain of cAMP-dependent protein kinase catalytic subunit PRKX (Homo sapiens) (P51817 whole entry, the tested form may be a part): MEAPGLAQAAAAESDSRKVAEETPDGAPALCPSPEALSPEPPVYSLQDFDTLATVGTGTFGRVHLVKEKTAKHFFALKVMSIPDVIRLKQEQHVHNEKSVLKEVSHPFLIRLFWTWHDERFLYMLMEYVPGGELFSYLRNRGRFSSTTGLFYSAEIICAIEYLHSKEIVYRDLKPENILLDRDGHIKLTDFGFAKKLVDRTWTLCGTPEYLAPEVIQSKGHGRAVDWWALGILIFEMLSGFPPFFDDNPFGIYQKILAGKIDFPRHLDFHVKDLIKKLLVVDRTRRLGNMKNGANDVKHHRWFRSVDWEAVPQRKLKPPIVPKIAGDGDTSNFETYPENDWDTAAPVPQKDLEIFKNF

Row | SMILES | pIC50 [1] | pIC50 [2] | pIC50 (Murine hepatitis virus) | IC50 (Murine hepatitis virus) [µM] | also measured
1 | Cn1cncc1C#Cc1ccc2[nH]c3c(c2c1)-c1nc(N)ncc1CCCC3 | 6.54 | < 5.00 | – | – | –
2 | CC(C)(O)C#Cc1ccc2[nH]c3c(c2c1)-c1nc(N)ncc1CCC3 | – | – | – | – | Activity [3]: < 10%; Activity [4]: < 10%; Activity [5]: < 10%; Activity [6]: < 10%; Activity [7]: < 10%; Activity [8]: < 10%; Activity [9]: < 10%; Activity [10]: < 10%; Activity [11]: < 10%; Activity [12]: < 10%; Activity [13]: < 10%; Activity [14]: < 10%; Activity [15]: < 10%; Activity [16]: < 10%; Activity [17]: < 10%; Activity [18]: < 10%; Activity [19]: < 10%; Activity [20]: < 10%; Activity [21]: < 10%
3 | Nc1ncc2c(n1)-c1c([nH]c3ccc(-c4ccc(F)cc4)cc13)CC2 | 8.09 | 6.42 | 6.15 | 0.708 | –
4 | Nc1ncc2c(n1)-c1c([nH]c3ccc(C#CC4CC4)cc13)CC2 | – | 6.52 | – | – | –
5 | CC(C)C(O)C#Cc1ccc2[nH]c3c(c2c1)-c1nc(N)ncc1CC3 (stereo not given) | – | 5.93 | 5.72 | 1.91 | –
6 | Nc1ncc2c(n1)-c1c([nH]c3ccc(C#Cc4ccncc4)cc13)CCC2 | 7.66 | 6.05 | 6.31 | 0.49 | –
7 | CC(C)C(O)C#Cc1ccc2[nH]c3c(c2c1)-c1nc(N)ncc1CCC3 (stereo not given) | – | 7.34 | – | – | –
8 | Nc1ncc2c(n1)-c1c([nH]c3ccc(C4CC4)cc13)CCCC2 | – | – | < 5.00 | > 10 | pIC50 (SARS-CoV-2): < 5.00; Activity [22]: 32%
9 | CC(C)(O)C#Cc1ccc2[nH]c3c(c2c1)-c1nc(N)ncc1CCCC3 | 7.21 | 5.61 | 5.07 | 8.51 | –
10 | Nc1ncc2c(n1)-c1c([nH]c3ccc(C#CC4CC4)cc13)CCCC2 | 7.12 | 6.15 | 5.74 | 1.78 | –
11 | CCC(CC)COC(=O)[C@H](C)N[P@](=O)(OC[C@H]1O[C@@](C#N)(c2ccc3c(N)ncnn23)[C@H](O)[C@@H]1O)Oc1ccccc1 | – | – | – | – | pIC50 (SARS-CoV-2): 7.06
12 | CN(C)CC#Cc1ccc2[nH]c3c(c2c1)-c1nc(N)ncc1CCC3 | – | – | – | – | inhibition (Calu-3 [23]): Active; inhibition at 1 µM [24]: > 75%; inhibition at 1 µM [25]: > 91%; remaining at 0.5 h [26]: 12.6%; Activity (SH-SY5Y): Active
13 | Cn1cncc1C#Cc1ccc2[nH]c3c(c2c1)-c1nc(N)ncc1CC3 | 7.11 | < 5.00 | 5.09 | 8.13 | –
14 | Cc1cccc(/C=N/Nc2cc(N3CCOCC3)n3nc(-c4ccncc4)cc3n2)c1 | – | – | 7.39 | 0.0407 | –
15 | Cc1cccc(/C=N/Nc2cc(N3CCOCC3)nc(OCCc3ccccn3)n2)c1 | – | – | – | – | inhibition (Calu-3 [23]): Active; inhibition (Calu-3 [27]): Active; inhibition (Caco-2): Active; Activity (SH-SY5Y): Active
16 | Nc1ncc2c(n1)-c1c([nH]c3ccc(C#Cc4ccncc4)cc13)CCCC2 | 6.24 | 5.28 | – | – | –
17 | Nc1ncc2c(n1)-c1c([nH]c3ccc(-c4ccc(F)cc4)cc13)CCCC2 | – | 5.59 | – | – | –
18 | CN(C)CC#Cc1ccc2[nH]c3c(c2c1)-c1nc(N)ncc1CC3 | – | 6.91 | – | – | –
19 | Cn1cc(-c2ccc3[nH]c4c(c3c2)-c2nc(N)ncc2CCC4)cn1 | 7.59 | 5.81 | 6.18 | 0.661 | –
20 | CC(C)(O)C#Cc1ccc2[nH]c3c(c2c1)-c1nc(N)ncc1CC3 | – | 6.66 | – | – | –
21 | Nc1ncc2c(n1)-c1c([nH]c3ccc(C#Cc4ccncc4)cc13)CC2 | – | 5.53 | – | – | –
22 | Nc1ncc2c(n1)-c1c([nH]c3ccc(-c4ccc(F)cc4)cc13)CCC2 | 8.03 | 7.94 | 7.15 | 0.0708 | inhibition (Calu-3 [23]): Active; pIC50 (SARS-CoV-2): 7.13; Activity (SH-SY5Y): Active
23 | Cn1cc(-c2ccc3[nH]c4c(c3c2)-c2nc(N)ncc2CC4)cn1 | 7.47 | 5.30 | 5.27 | 5.37 | –
24 | CN(C)CC#Cc1ccc2[nH]c3c(c2c1)-c1nc(N)ncc1CCCC3 | 6.37 | 6.17 | – | – | –
